Measured values published in patent US8754242B2, “Herbicides” (Syngenta Crop Protection LLC, priority 2007, dated 2014).

Assays:
Format in all cases: in vivo
Avena fatua (AVEFA) [1] = assay: Test Example 1 pre-emergence herbicidal activity; conditions: Avena fatua, 480 h, rate 250 g/ha, evaluated 20 days later, read-out: Pre-emergence activity AVEFA (100=total damage to plant; 0=no damage to plant)
Method in brief: (§1)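 Plants sown in standard soil in pots; sprayed 1 day after sowing (pre-emergence) or after 10 days' glasshouse cultivation (post-emergence) with aqueous spray of compound formulated in acetone plus Emulsogen EL/N-methylpyrrolidone/dipropylene glycol monomethyl ether/X-77 solution. Damage scored 0–100 (100 = total damage) after 20 days (pre) or 15 days (post).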

[2] = test system: Alopecurus myosuroides (ALOMY); assay: Test Example 1 pre-emergence herbicidal activity; conditions: Alopecurus myosuroides, 480 h, rate 250 g/ha, evaluated 20 days later, read-out: Pre-emergence activity ALOMY (100=total damage to plant; 0=no damage to plant)
Method in brief: as §1

[3] = test system: Echinochloa crus-galli (ECHCG); assay: Test Example 1 pre-emergence herbicidal activity; conditions: Echinochloa crus-galli, 480 h, rate 250 g/ha, evaluated 20 days later, read-out: Pre-emergence activity ECHCG (100=total damage to plant; 0=no damage to plant)
Method in brief: as §1

Setaria faberi (SETFA) [4] = assay: Test Example 1 pre-emergence herbicidal activity; conditions: Setaria faberi, 480 h, rate 250 g/ha, evaluated 20 days later, read-out: Pre-emergence activity SETFA (100=total damage to plant; 0=no damage to plant)
Method in brief: as §1

[5] = test system: Digitaria sanguinalis (DIGSA); assay: Test Example 1 pre-emergence herbicidal activity; conditions: Digitaria sanguinalis, 480 h, rate 250 g/ha, evaluated 20 days later, read-out: Pre-emergence activity DIGSA (100=total damage to plant; 0=no damage to plant)
Method in brief: as §1

Lolium perenne (LOLPE) [6] = assay: Test Example 1 pre-emergence herbicidal activity; conditions: Lolium perenne, 480 h, rate 250 g/ha, evaluated 20 days later, read-out: Pre-emergence activity LOLPE (100=total damage to plant; 0=no damage to plant)
Method in brief: as §1

Avena fatua (AVEFA) [7] = assay: Test Example 1 post-emergence herbicidal activity; conditions: 360 h, rate 125 g/ha, evaluated 15 days later, read-out: Post-emergence activity AVEFA (100=total damage to plant; 0=no damage to plant)
Method in brief: as §1

[8] = test system: Alopecurus myosuroides (ALOMY); assay: Test Example 1 post-emergence herbicidal activity; conditions: 360 h, rate 125 g/ha, evaluated 15 days later, read-out: Post-emergence activity ALOMY (100=total damage to plant; 0=no damage to plant)
Method in brief: as §1

[9] = test system: Echinochloa crus-galli (ECHCG); assay: Test Example 1 post-emergence herbicidal activity; conditions: 360 h, rate 125 g/ha, evaluated 15 days later, read-out: Post-emergence activity ECHCG (100=total damage to plant; 0=no damage to plant)
Method in brief: as §1

Setaria faberi (SETFA) [10] = assay: Test Example 1 post-emergence herbicidal activity; conditions: 360 h, rate 125 g/ha, evaluated 15 days later, read-out: Post-emergence activity SETFA (100=total damage to plant; 0=no damage to plant)
Method in brief: as §1

[11] = test system: Digitaria sanguinalis (DIGSA); assay: Test Example 1 post-emergence herbicidal activity; conditions: 360 h, rate 125 g/ha, evaluated 15 days later, read-out: Post-emergence activity DIGSA (100=total damage to plant; 0=no damage to plant)
Method in brief: as §1

Lolium perenne (LOLPE) [12] = assay: Test Example 1 post-emergence herbicidal activity; conditions: 360 h, rate 125 g/ha, evaluated 15 days later, read-out: Post-emergence activity LOLPE (100=total damage to plant; 0=no damage to plant)
Method in brief: as §1

CCCCC[C@]12C=C[C@H](O1)[C@@H]1C(=O)C(c3c(C)cc(C)cc3C)=C(O)[C@@H]12 (racemic) [Example T42]
pest or weed control at 250 g/ha (Avena fatua (AVEFA) [1]): 10% | pest or weed control at 250 g/ha [2]: 0% | pest or weed control at 250 g/ha [3]: 30% | pest or weed control at 250 g/ha (Setaria faberi (SETFA) [4]): 0% | pest or weed control at 250 g/ha [5]: 0% | pest or weed control at 250 g/ha (Lolium perenne (LOLPE) [6]): 0% | pest or weed control at 125 g/ha (Avena fatua (AVEFA) [7]): 0% | pest or weed control at 125 g/ha [8]: 0% | pest or weed control at 125 g/ha [9]: 60% | pest or weed control at 125 g/ha (Setaria faberi (SETFA) [10]): 0% | pest or weed control at 125 g/ha [11]: 20% | pest or weed control at 125 g/ha (Lolium perenne (LOLPE) [12]): 10%

CCc1cc(C)cc(CC)c1C1=C(O)[C@@H]2[C@@H]3O[C@@H](C[C@H]3c3ccccc3F)[C@@H]2C1=O (racemic) [Example T170]
pest or weed control at 250 g/ha (Avena fatua (AVEFA) [1]): 40% | pest or weed control at 250 g/ha [2]: 80% | pest or weed control at 250 g/ha [3]: 80% | pest or weed control at 250 g/ha (Setaria faberi (SETFA) [4]): 70% | pest or weed control at 250 g/ha [5]: 70% | pest or weed control at 250 g/ha (Lolium perenne (LOLPE) [6]): 90% | pest or weed control at 125 g/ha (Avena fatua (AVEFA) [7]): 70% | pest or weed control at 125 g/ha [8]: 80% | pest or weed control at 125 g/ha [9]: 100% | pest or weed control at 125 g/ha (Setaria faberi (SETFA) [10]): 40% | pest or weed control at 125 g/ha [11]: 40% | pest or weed control at 125 g/ha (Lolium perenne (LOLPE) [12]): 80%

Cc1cc(C)c(C2=C(OC(=O)C(C)C)[C@H]3[C@@H](C2=O)[C@@H]2CC[C@H]3O2)c(C)c1 [Example P10]
pest or weed control at 250 g/ha (Avena fatua (AVEFA) [1]): 100% | pest or weed control at 250 g/ha [2]: 100% | pest or weed control at 250 g/ha [3]: 100% | pest or weed control at 250 g/ha (Setaria faberi (SETFA) [4]): 80% | pest or weed control at 250 g/ha [5]: 100% | pest or weed control at 250 g/ha (Lolium perenne (LOLPE) [6]): 100% | pest or weed control at 125 g/ha (Avena fatua (AVEFA) [7]): 90% | pest or weed control at 125 g/ha [8]: 100% | pest or weed control at 125 g/ha [9]: 100% | pest or weed control at 125 g/ha (Setaria faberi (SETFA) [10]): 80% | pest or weed control at 125 g/ha [11]: 80% | pest or weed control at 125 g/ha (Lolium perenne (LOLPE) [12]): 100%

CCc1cc(C)cc(CC)c1C1=C(O)[C@@H]2[C@@H]3O[C@@H](C[C@H]3c3ccc(OC(F)(F)F)cc3)[C@@H]2C1=O (racemic) [Example T159]
pest or weed control at 250 g/ha (Avena fatua (AVEFA) [1]): 60% | pest or weed control at 250 g/ha [2]: 50% | pest or weed control at 250 g/ha [3]: 70% | pest or weed control at 250 g/ha (Setaria faberi (SETFA) [4]): 70% | pest or weed control at 250 g/ha [5]: 70% | pest or weed control at 250 g/ha (Lolium perenne (LOLPE) [6]): 40% | pest or weed control at 125 g/ha (Avena fatua (AVEFA) [7]): 70% | pest or weed control at 125 g/ha [8]: 90% | pest or weed control at 125 g/ha [9]: 100% | pest or weed control at 125 g/ha (Setaria faberi (SETFA) [10]): 100% | pest or weed control at 125 g/ha [11]: 100% | pest or weed control at 125 g/ha (Lolium perenne (LOLPE) [12]): 40%

CCOC(=O)C1=NOC2C1[C@@H]1O[C@H]2[C@H]2C(O)=C(c3c(CC)cc(C)cc3CC)C(=O)[C@H]21 (mixture of isomers) [Example T16]
pest or weed control at 250 g/ha (Avena fatua (AVEFA) [1]): 10% | pest or weed control at 250 g/ha [2]: 0% | pest or weed control at 250 g/ha [3]: 0% | pest or weed control at 250 g/ha (Setaria faberi (SETFA) [4]): 10% | pest or weed control at 250 g/ha [5]: 0% | pest or weed control at 250 g/ha (Lolium perenne (LOLPE) [6]): 0% | pest or weed control at 125 g/ha (Avena fatua (AVEFA) [7]): 20% | pest or weed control at 125 g/ha [8]: 40% | pest or weed control at 125 g/ha [9]: 30% | pest or weed control at 125 g/ha (Setaria faberi (SETFA) [10]): 0% | pest or weed control at 125 g/ha [11]: 0% | pest or weed control at 125 g/ha (Lolium perenne (LOLPE) [12]): 50%

CCc1cc(C)cc(CC)c1C1=C(O)[C@@H]2[C@@H]3O[C@@H](C[C@H]3c3ccccc3[N+](=O)[O-])[C@@H]2C1=O [Example T177]
pest or weed control at 250 g/ha (Avena fatua (AVEFA) [1]): 50% | pest or weed control at 250 g/ha [2]: 60% | pest or weed control at 250 g/ha [3]: 70% | pest or weed control at 250 g/ha (Setaria faberi (SETFA) [4]): 50% | pest or weed control at 250 g/ha [5]: 10% | pest or weed control at 250 g/ha (Lolium perenne (LOLPE) [6]): 70% | pest or weed control at 125 g/ha (Avena fatua (AVEFA) [7]): 70% | pest or weed control at 125 g/ha [8]: 80% | pest or weed control at 125 g/ha [9]: 80% | pest or weed control at 125 g/ha (Setaria faberi (SETFA) [10]): 20% | pest or weed control at 125 g/ha [11]: 30% | pest or weed control at 125 g/ha (Lolium perenne (LOLPE) [12]): 30%

COc1ccc([C@@H]2C[C@@H]3O[C@H]2[C@H]2C(O)=C(c4c(C)cc(C)cc4C)C(=O)[C@H]23)cc1 (racemic) [Example T57]
pest or weed control at 250 g/ha (Avena fatua (AVEFA) [1]): 30% | pest or weed control at 250 g/ha [2]: 50% | pest or weed control at 250 g/ha [3]: 70% | pest or weed control at 250 g/ha (Setaria faberi (SETFA) [4]): 80% | pest or weed control at 250 g/ha [5]: 60% | pest or weed control at 250 g/ha (Lolium perenne (LOLPE) [6]): 100% | pest or weed control at 125 g/ha (Avena fatua (AVEFA) [7]): 70% | pest or weed control at 125 g/ha [8]: 70% | pest or weed control at 125 g/ha [9]: 80% | pest or weed control at 125 g/ha (Setaria faberi (SETFA) [10]): 70% | pest or weed control at 125 g/ha [11]: 70% | pest or weed control at 125 g/ha (Lolium perenne (LOLPE) [12]): 40%
